Experiments:
[1] = test system: patients with primary focal segmental glomerulosclerosis (FSGS); assay: DUET phase 2 trial: change in urine protein to creatinine (UP/C) ratio, proteinuria; type: in vivo, human; details: for Complete remission (UP/C ratio <0.3 g/g), number of patients: 8-week double-blind period; for Reduction from Baseline in UP/C ratio (geometric least squares mean reduction) / Reduction from Baseline in UP/C ratio, intent-to-treat analysis: baseline to week 8; for Reduction from Baseline in UP/C ratio, intent-to-treat analysis: missing data imputed as zero change; for Proportion of patients who achieved UP/C ratio ≤1.5 g/g with >40% reduction: week 8; for percentage of patients achieving UP/C ratio ≤1.5 g/g with >40% reduction during open-label period: 8 weeks to 48 weeks
From the text: DUET trial is a phase 2, double-blind, randomized, active-control, dose-escalation study (NCT01613118) that evaluates the efficacy and safety of sparsentan as a treatment for primary focal segmental glomerulosclerosis (FSGS), a rare disorder characterized by massive proteinuria and progressive loss of kidney function. Patients (ranging in age from 8 years to 75 years) with biopsy-proven primary FSGS (or documentation of a genetic mutation in a podocyte protein associated with the disease) having baseline urine protein to creatinine (“UP/C”) ratios greater than […] and estimated glomerular filtration rates greater than 30 ml/min were eligible for the study. The inclusion criteria also included a mean seated blood pressure >[…] and <145/96 mmHg for patients aged 18 years or older, or, for patients aged <18 years of age, a mean seated blood pressure of >90/60 mmHg and <95th percentile for age, gender, and height. The inclusion criteria included an allowance for a stable dose of immunosuppressive medication for ≥1 month. […] Patients who signed consent and met all inclusion and exclusion criteria during the screening phase underwent a 2-week angiotensin receptor blocker (ARB) and angiotensin converting enzyme (ACE) inhibitor washout period before being randomly assigned to one of the three escalating dose cohorts receiving sparsentan (200 mg/day; 400 mg/day; and 800 mg/day) or a fixed maximal dose of active control (the ARB irbesartan, at 300 mg/day) in a 3:1 ratio within each cohort. The primary endpoint was the change in UP/C ratio (determined as a measure of urinary protein excretion) from baseline. […] After the completion of an 8-week double-blind period, the patients continued sparsentan treatment on their assigned doses in an open-label extension for 136 additional weeks. Irbesartan control arm patients were offered sparsentan treatment at the dose they would have received according to the double-blind dose group in which they were enrolled. The analysis of the primary endpoint included 96 randomized patients who received at least one dose of the study drug, and had both baseline and week 8 UP/C ratio values (i.e., had completed 8 weeks of double-blind treatment). The pre-specified analysis order was (1) all sparsentan doses vs. irbesartan; (2) sparsentan 800- and 400-mg doses vs. irbesartan; (3) sparsentan 400-mg dose vs. irbesartan; (4) sparsentan 800-mg dose vs. irbesartan. Baseline or week 8 UP/C ratio data were missing for 9 sparsentan-treated patients and 4 irbesartan-treated patients. An intent-to-treat analysis was conducted, in which the missing data were imputed as zero change in UP/C ratio. […] The results across sparsentan dose cohorts were similar to those observed without imputed data (Table 4).

[2] = DUET trial: systolic and diastolic blood pressure; type: in vivo, human; details: double-blind period; irbesartan n=32, sparsentan n=64
From the text: DUET trial is a phase 2, double-blind, randomized, active-control, dose-escalation study (NCT01613118) that evaluates the efficacy and safety of sparsentan as a treatment for primary focal segmental glomerulosclerosis (FSGS), a rare disorder characterized by massive proteinuria and progressive loss of kidney function. Patients (ranging in age from 8 years to 75 years) with biopsy-proven primary FSGS (or documentation of a genetic mutation in a podocyte protein associated with the disease) having baseline urine protein to creatinine (“UP/C”) ratios greater than 1 g/g and estimated glomerular filtration rates greater than 30 ml/min were eligible for the study. […]
Patients who signed consent and met all inclusion and exclusion criteria during the screening phase underwent a 2-week angiotensin receptor blocker (ARB) and angiotensin converting enzyme (ACE) inhibitor washout period before being randomly assigned to one of the three escalating dose cohorts receiving sparsentan (200 mg/day; 400 mg/day; and 800 mg/day) or a fixed maximal dose of active control (the ARB irbesartan, at 300 mg/day) in a 3:1 ratio within each cohort. The primary endpoint was the change in UP/C ratio (determined as a measure of urinary protein excretion) from baseline. […]

[3] = Baseline, sparsentan 200-800 mg/day (n=64), irbesartan 300 mg/day (n=32)
[4] = Baseline, sparsentan 400-800 mg/day (n=51), irbesartan 300 mg/day (n=25)
[5] = Week 8, sparsentan 200-800 mg/day (n=64), irbesartan 300 mg/day (n=32)
[6] = Week 8, sparsentan 400-800 mg/day (n=51), irbesartan 300 mg/day (n=25)
[7] = dose cohort 200 mg sparsentan, irbesartan 300 mg/day
[8] = dose cohort 400 mg and 800 mg sparsentan, irbesartan 300 mg/day
[9] = dose cohort 400 mg sparsentan, irbesartan 300 mg/day
[10] = dose cohort 800 mg sparsentan, irbesartan 300 mg/day
[11] = dose cohort All (sparsentan 200-800 mg/day; irbesartan 300 mg/day)
[12] = sparsentan 200-800 mg/day (n=64), irbesartan 300 mg/day (n=32)
[13] = sparsentan 400-800 mg/day (n=51), irbesartan 300 mg/day (n=25)

SMILES | Complete remission (UP/C ratio <0.3 g/g), number of patients [1] | UP/C ratio, maximum [1, 3] | UP/C ratio, mean (SD) [1, 3] | UP/C ratio, median [1, 3] | UP/C ratio, minimum [1, 3] | UP/C ratio, maximum [1, 4] | UP/C ratio, mean (SD) [1, 4] | UP/C ratio, median [1, 4] | UP/C ratio, minimum [1, 4] | UP/C ratio, maximum [1, 5] | UP/C ratio, mean (SD) [1, 5] | UP/C ratio, median [1, 5] | UP/C ratio, minimum [1, 5] | UP/C ratio, maximum [1, 6] | UP/C ratio, mean (SD) [1, 6] | UP/C ratio, median [1, 6] | UP/C ratio, minimum [1, 6] | Reduction from Baseline in UP/C ratio (geometric least squares mean reduction) [1, 7] | Reduction from Baseline in UP/C ratio (geometric least squares mean reduction) [1, 8] | Reduction from Baseline in UP/C ratio (geometric least squares mean reduction) [1, 9] | also measured
CCCCC1=NC2(CCCC2)C(=O)N1Cc1ccc(-c2ccccc2-c2nnn[nH]2)cc1 [Irbesartan, irbesartan, reference compound] | in no irbesartan-treated patients | 10.73 g/g | 4.017 (2.6717) g/g | 3.265 g/g | 0.88 g/g | 10.73 g/g | 3.816 (2.7160) g/g | 2.970 g/g | 0.88 g/g | 10.19 g/g | 3.164 (2.2713) g/g | 2.405 g/g | 0.43 g/g | 10.19 g/g | 2.990 (2.3598) g/g | 2.390 g/g | 0.43 g/g | 15.0% | 19.0% | 28.1% | Reduction from Baseline in UP/C ratio (geometric least squares mean reduction) ([1]; dose cohort 400 mg and 800 mg sparsentan, irbesartan 300 mg/day, listed as irbesartan): 19%; Reduction from Baseline in UP/C ratio (geometric least squares mean reduction) [1, 10]: 9.3%; Reduction from Baseline in UP/C ratio (geometric least squares mean reduction) [1, 11]: 18.5%; Reduction from Baseline in UP/C ratio (geometric least squares mean reduction) ([1]; dose cohort All (sparsentan 200-800 mg/day; irbesartan 300 mg/day), listed as irbesartan): 19%; Reduction from Baseline in UP/C ratio, intent-to-treat analysis ([1]; dose cohort 200 mg): 13.2%; Reduction from Baseline in UP/C ratio, intent-to-treat analysis ([1]; dose cohort 400 mg): 23.6%; Reduction from Baseline in UP/C ratio, intent-to-treat analysis ([1]; dose cohort 400 mg and 800 mg): 15.9%; Reduction from Baseline in UP/C ratio, intent-to-treat analysis ([1]; dose cohort 800 mg): 9.7%; Reduction from Baseline in UP/C ratio, intent-to-treat analysis ([1]; dose cohort All): 15.7%; % Change from Baseline to Week 8 in UP/C ratio, geometric LSmeans [1, 12]: −18.5%; % Change from Baseline to Week 8 in UP/C ratio, geometric LSmeans [1, 13]: −19.0%; Proportion of patients who achieved UP/C ratio ≤1.5 g/g with >40% reduction ([1]; dose cohort 200 mg): 0.0%; Proportion of patients who achieved UP/C ratio ≤1.5 g/g with >40% reduction ([1]; dose cohort 400 mg): 17.7%; Proportion of patients who achieved UP/C ratio ≤1.5 g/g with >40% reduction ([1]; dose cohort 400 mg and 800 mg): 12.0%; Proportion of patients who achieved UP/C ratio ≤1.5 g/g with >40% reduction ([1]; dose cohort 800 mg): 0.0%; Proportion of patients who achieved UP/C ratio ≤1.5 g/g with >40% reduction ([1]; dose cohort All): 9.4%; Proportion of patients who achieved UP/C ratio ≤1.5 g/g with >40% reduction ([1]; dose cohort All, listed as irbesartan): 9%; mean systolic and diastolic blood pressures relative to baseline [2]: reductions
CCCCC1=NC2(CCCC2)C(=O)N1Cc1ccc(-c2ccccc2S(=O)(=O)Nc2noc(C)c2C)c(COCC)c1 [Sparsentan, 4′-((2-butyl-4-oxo-1,3-diazaspiro[4.4]non-1-en-3-yl)methyl)-N-(4,5-dimethylisoxazol-3-yl)-2′-(ethoxymethyl)-[1,1′-biphenyl]-2-sulfonamide] | 4 patients | 18.66 g/g | 4.707 (3.7810) g/g | 3.620 g/g | 0.43 g/g | 18.66 g/g | 4.824 (4.0506) g/g | 3.530 g/g | 0.43 g/g | 14.47 g/g | 3.300 (3.5719) g/g | 1.980 g/g | 0.12 g/g | 14.47 g/g | 3.208 (3.4738) g/g | 1.900 g/g | 0.12 g/g | 33.1% | 47.4% | 52.7% | percentage of patients achieving UP/C ratio ≤1.5 g/g with >40% reduction during open-label period ([1]; patients continuing to receive sparsentan): increased; percentage of patients achieving UP/C ratio ≤1.5 g/g with >40% reduction during open-label period ([1]; patients switched from irbesartan to sparsentan): increased; Reduction from Baseline in UP/C ratio (geometric least squares mean reduction) ([1]; dose cohort 400 mg and 800 mg sparsentan, irbesartan 300 mg/day, listed as sparsentan): 47%; Reduction from Baseline in UP/C ratio (geometric least squares mean reduction) [1, 10]: 41.3%; Reduction from Baseline in UP/C ratio (geometric least squares mean reduction) [1, 11]: 44.8%; Reduction from Baseline in UP/C ratio (geometric least squares mean reduction) ([1]; dose cohort All (sparsentan 200-800 mg/day; irbesartan 300 mg/day), listed as sparsentan): 45%; Reduction from Baseline in UP/C ratio, intent-to-treat analysis ([1]; dose cohort 200 mg): 33.1%; Reduction from Baseline in UP/C ratio, intent-to-treat analysis ([1]; dose cohort 400 mg): 50.5%; Reduction from Baseline in UP/C ratio, intent-to-treat analysis ([1]; dose cohort 400 mg and 800 mg): 44.8%; Reduction from Baseline in UP/C ratio, intent-to-treat analysis ([1]; dose cohort 800 mg): 38.4%; Reduction from Baseline in UP/C ratio, intent-to-treat analysis ([1]; dose cohort All): 42.7%; % Change from Baseline to Week 8 in UP/C ratio, geometric LSmeans [1, 12]: −44.8%; % Change from Baseline to Week 8 in UP/C ratio, geometric LSmeans [1, 13]: −47.4%; Proportion of patients who achieved UP/C ratio ≤1.5 g/g with >40% reduction ([1]; dose cohort 200 mg): 15.4%; Proportion of patients who achieved UP/C ratio ≤1.5 g/g with >40% reduction ([1]; dose cohort 400 mg): 38.1%; Proportion of patients who achieved UP/C ratio ≤1.5 g/g with >40% reduction ([1]; dose cohort 400 mg and 800 mg): 31.4%; Proportion of patients who achieved UP/C ratio ≤1.5 g/g with >40% reduction ([1]; dose cohort 800 mg): 26.7%; Proportion of patients who achieved UP/C ratio ≤1.5 g/g with >40% reduction ([1]; dose cohort All): 28.1%; Proportion of patients who achieved UP/C ratio ≤1.5 g/g with >40% reduction ([1]; dose cohort All, listed as sparsentan): 28%; mean systolic and diastolic blood pressures relative to baseline [2]: reduction was statistically significant

— patent US10864197B2, “Biphenyl sulfonamide compounds for the treatment of kidney diseases or disorders” (Retrophin, Inc., priority 2016, dated 2020)
